{"source": "patent US11472846B2", "about": "“Compositions and methods for treating diseases by inhibiting exosome release” (priority 2016, dated 2022)", "type_in_all_cases": "cell-based, human", "key": {"[1]": {"test_system": "MDA-MB-231 breast cancer cells", "assay": "InnoCyte cell migration assay, MDA-MB-231", "settings": "MDA-MB-231 cells, 280 nM SMR peptide or 3 μM Latrunculin A, 24 hours", "experimental": "(§1) 7-12. Cell migration assay. Cell migration assays were performed using the InnoCyte Cell Migration Assay (EMD Millipore Corporation, Temecula, Calif.) according to the manufacturer's instructions. Briefly, cell migration was monitored in the presence and absence of SMRwt peptides or latrunculin A (positive control inhibitor), which were added to the lower chamber of a 96-well plate. MCF-7 and MDA-MB-231 breast cancer cells and non-tumorigenic MCF-10A breast cells were harvested by 0.25% Trypsin-EDTA (Life Technologies) release and resuspended at 250,000500,000 cells/ml in serum-free RPMI 1640 media. A total of 25,000-50,000 cells was added to the upper chamber and allowed to migrate through an 8-μm pore-size membrane for 24 hours at 37° C. in a 5% CO2 atmosphere. Cells that migrated through the membrane were detached and labeled with Calcein-AM fluorescent dye. Fluorescence was measured using a Fluorescence Plate Reader (Molecular Devices, Sunnyvale, Calif.) with an excitation wavelength of 485 nm and an emission wavelength of 515 nm. The experiment was repeated in triplicate, and each conditioned experiment was performed in quadruplicate."}, "[2]": {"test_system": "exosomes from MCF-7 cells", "assay": "Western blot of exosomal proteins (Alix, vimentin, mortalin), MCF-7", "settings": "48 hr treatment, vs negative controls", "experimental": "(§2) 7-7. Protein analysis by Western blotting. Exosomes were isolated from cell culture supernatants as described above. Protein concentrations were determined by measuring absorbance at 280 nm (Nanodrop 2000). Cultured cells were treated with PEG-SMR-Clu, SMR-CPP peptides, MKT-077, Omeprazole or DMA at 37° C. for 48 hr. To evaluate mortalin, vimentin and exosome expression, Western blot analysis was performed using anti-mortalin (Grp-75), anti-Vimentin and anti-Alix antibodies, respectively (FIG. 12).\n(§3) Exosomes and cell lysates were prepared by incubating 5-10 min at 95° C. in sample buffer. The lysates were subjected to SDS-PAGE under reducing conditions (150 mM DTT) in 4-20% Criterion™ TGX™ precast gels (BioRad, Hercules, Calif.) and then transferred onto a nitrocellulose membrane (Bio-Rad, Hercules, Calif.). Nitrocellulose membranes were blocked with 5% skim milk (MedSupply, Atlanta, Ga.) in TBS containing 0.05% Tween 20 (TBST) for 1 h at room temperature. The membranes were treated with anti-mortalin (Grp-75) mAb or anti-α-tubulin mAb for cell lysates (FIG. 15, Panels A and B) or with anti-Alix and anti-vimentin or anti-mortalin for exosomes (FIG. 12), followed by peroxidase-conjugated goat anti-mouse IgG. Bands were developed with an ECL chemiluminescent substrate (Santa Cruz Biotechnology, Santa Cruz, Calif.) and exposed to an ImageQuant LAS 4000 imaging system (GE Healthcare, Piscataway, N.J. 08854)."}, "MDA-MB-231 exosomes": {"test_system": "MDA-MB-231 exosomes", "assay": "Western blot of exosomal proteins (Alix, vimentin, mortalin), MDA-MB-231", "settings": "MDA-MB-231 cells, 48 hr treatment", "experimental": "as §2, §3"}, "K562 cells": {"test_system": "K562 cells", "assay": "Complement-mediated cell cytotoxicity assay (trypan blue), K562", "settings": "for cell death under complement-positive conditions: 280 nM PEG-SMRwt-Clu or 560 nM SMRwt-CPP 60 min, then anti-CXCR4 antibody and NHS 60 min; for cell death under complement-negative conditions: 280 nM PEG-SMRwt-Clu or 560 nM SMRwt-CPP, 60 min", "experimental": "(§4) 7-9. Complement-mediated cell cytotoxicity assay. Complement-mediated cell cytotoxicity assays were performed as previously described (Reiter et al., Mol Immunol. (1992) 29(6): p. 771-81). Briefly, MCF-7, MDA-MB-231 and K562 cells were either mock-transfected or transfected with mortalin siRNA. Cells were incubated with 1 μg/ml of anti-CXCR4 antibody for 30 min at 4° C., followed by treatment with PEG-SMRwt-Clu peptide or PEG-SMRmut-Clu peptide or SMRwt-CPP peptide or SMRmut-CPP peptide alone, or treated with SMR peptide combined with complement from normal human serum (NHS) or heat-inactivated normal human serum (NIS) for 60 min at 37° C. Percentage of cells lysed were determined by a trypan blue exclusion assay using the TC10™ Automated Cell Counter (Bio-Rad, Richmond Calif.). (FIG. 14, FIG. 15, Panel D)."}, "[3]": {"test_system": "MCF-7 breast cancer cells", "assay": "InnoCyte cell migration assay, MCF-7", "settings": "MCF-7 cells, 1120 nM SMR peptide or 3 μM Latrunculin A, 24 hours", "experimental": "as §1"}, "[4]": {"test_system": "MDA-MB-231 breast cancer cells", "assay": "Propidium iodide cell cycle analysis (Cellometer), MDA-MB-231", "settings": "MDA-MB-231 cells, 48 hours, 0.28 μM/mL peptide", "experimental": "1-4. Cell cycle analysis. MCF-7 and MDA-MB-231 breast cancer cells were cultured into 6-well plates at 4×10^5 cells per well and treated with either paclitaxel and cisplatin or combined with PEG-SMRwt-CLU peptide for 24 and 48 hours. Cell cycle analysis was performed using a propidium iodide cell cycle assay and measured using a Cellometer (Nexcelom, MA). […] Breast cancer cells were seeded into 96-well plates at 5×10^3 cells/ml, and treated with either 1.6 μM//mL of paclitaxel, or 3 mg/mL cisplatin, 1.12 μM/mL PEG-SMRwt-CLU peptide, SMR peptide combined with paclitaxel or with cisplatin (MCF-7 cells). Alternatively 1.6 μM/mL paclitaxel or 2 mg/mL cisplatin or 0.28 μM/mL of PEG-SMR-CLU peptide, or the peptide combined with each of these drugs was used for MDA-MB-231 cells. The concentrations for cisplatin and paclitaxel were experimentally determined IC50 dosages for the different cell types (data not shown). At the end of the 24 hr or 48 hr incubations, the cells were assessed by the Cellometry imaging cytometry assay.\nAll above steps were done on MCF-7 and MDA-MB-231 cells separately. […]"}, "MDA-MB-231 cells": {"test_system": "MDA-MB-231 cells", "assay": "Complement-mediated cell cytotoxicity assay (trypan blue), MDA-MB-231", "settings": "for cell death under complement-positive conditions: 280 nM PEG-SMRwt-Clu or 560 nM SMRwt-CPP 60 min, then anti-CXCR4 antibody and NHS 60 min; for cell death under complement-negative conditions: 280 nM PEG-SMRwt-Clu or 560 nM SMRwt-CPP, 60 min", "experimental": "as §4, with “Cells were incubated with 1 μg/ml of anti-CXCR4 antibody for 30 min at 4° C., followed by treatment with PEG-SMRwt-Clu peptide or PEG-SMRmut-Clu peptide” left out"}}, "data": [{"sequence": "NXNVGFPVAAVGFPVHPLSKHPYWSQP (SEQ ID NO: 37) [PEG-SMRwt-Clu]", "values": [{"measurement": "reduced migration by", "setting": "[1]", "value": 52.37, "unit": "%"}, {"measurement": "Alix expression in exosomes", "setting": "[2]", "value": "significantly decreased"}, {"measurement": "Mortalin expression in exosomes", "setting": "[2]", "value": "significantly decreased"}, {"measurement": "Vimentin expression in exosomes", "setting": "[2]", "value": "significantly decreased"}, {"measurement": "Alix expression in exosomes", "setting": "MDA-MB-231 exosomes", "value": "significantly decreased"}, {"measurement": "Mortalin expression in exosomes", "setting": "MDA-MB-231 exosomes", "value": "significantly decreased"}, {"measurement": "Vimentin expression in exosomes", "setting": "MDA-MB-231 exosomes", "value": "significantly decreased"}, {"measurement": "cell death under complement-positive conditions", "setting": "K562 cells", "value": 55, "unit": "%"}, {"measurement": "cell death under complement-negative conditions", "setting": "K562 cells", "value": 4.3, "unit": "%"}, {"measurement": "reduced migration by", "setting": "[3]", "value": 75.74, "unit": "%"}, {"measurement": "cell cycle effect", "setting": "[4]", "value": "induced cell cycle arrest"}, {"measurement": "cell death under complement-positive conditions", "setting": "MDA-MB-231 cells", "value": 76, "unit": "%"}, {"measurement": "cell death under complement-negative conditions", "setting": "MDA-MB-231 cells", "value": 3.6, "unit": "%"}]}, {"sequence": "VGFPVAAVGFPVGRKKRRQRRRPPQ [SMRwt-CPP]", "values": [{"measurement": "reduced migration by", "setting": "[1]", "value": 46.39, "unit": "%"}, {"measurement": "Alix expression in exosomes", "setting": "[2]", "value": "significantly decreased"}, {"measurement": "Mortalin expression in exosomes", "setting": "[2]", "value": "no significant changes"}, {"measurement": "Vimentin expression in exosomes", "setting": "[2]", "value": "significantly decreased"}, {"measurement": "Alix expression in exosomes", "setting": "MDA-MB-231 exosomes", "value": "significantly decreased"}, {"measurement": "Mortalin expression in exosomes", "setting": "MDA-MB-231 exosomes", "value": "significantly decreased"}, {"measurement": "Vimentin expression in exosomes", "setting": "MDA-MB-231 exosomes", "value": "significantly decreased"}, {"measurement": "cell death under complement-positive conditions", "setting": "K562 cells", "value": 23, "unit": "%"}, {"measurement": "cell death under complement-negative conditions", "setting": "K562 cells", "value": 4.3, "unit": "%"}, {"measurement": "reduced migration by", "setting": "[3]", "value": 71.87, "unit": "%"}, {"measurement": "cell death under complement-positive conditions", "setting": "MDA-MB-231 cells", "value": 9, "unit": "%"}, {"measurement": "cell death under complement-negative conditions", "setting": "MDA-MB-231 cells", "value": 3.6, "unit": "%"}]}]}
